# Experimental data published in PubChem BioAssay (NCI).
#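 GI50: concentration for 50% inhibition of growth. TGI marks complete inhibition of growth.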
# Key:
# Assay in all cases: NCI-60 cell line screen, 384-well format
# NCI-H460 NSCLC = system: NCI-H460 NSCLC
# HCT-116 colon = system: HCT-116 colon
# U251 glioblastoma = system: U251 glioblastoma
# 786-0 renal = system: 786-0 renal
# CCRF-CEM leukemia = system: CCRF-CEM leukemia
# HL-60(TB) leukemia = system: HL-60(TB) leukemia
# OVCAR-3 ovarian = system: OVCAR-3 ovarian
# A498 renal = system: A498 renal
# DU-145 prostate = system: DU-145 prostate
# T-47D breast = system: T-47D breast
# SK-MEL-2 melanoma = system: SK-MEL-2 melanoma
# SK-OV-3 ovarian = system: SK-OV-3 ovarian
# RXF 393 renal = system: RXF 393 renal
# MDA-MB-468 breast = system: MDA-MB-468 breast
# HT29 colon = system: HT29 colon
# MOLT-4 leukemia = system: MOLT-4 leukemia
# K-562 leukemia = system: K-562 leukemia
# HS 578T breast = system: HS 578T breast
# NCI-H322M lung = system: NCI-H322M lung
# UACC-257 melanoma = system: UACC-257 melanoma
# IGROV1 ovarian = system: IGROV1 ovarian
# SK-MEL-28 melanoma = system: SK-MEL-28 melanoma
# SR leukemia = system: SR leukemia
# NCI-H226 lung = system: NCI-H226 lung
# NCI/ADR-RES ovarian = system: NCI/ADR-RES ovarian
# MDA-MB-231 breast = system: MDA-MB-231 breast
# A549 NSCLC = system: A549 NSCLC
# SNB-19 CNS = system: SNB-19 CNS
# SW-620 colon = system: SW-620 colon
# HCC-2998 colon = system: HCC-2998 colon
# OVCAR-8 ovarian = system: OVCAR-8 ovarian
# SN12C renal = system: SN12C renal
# RPMI-8226 leukemia = system: RPMI-8226 leukemia
# EKVX NSCLC = system: EKVX NSCLC
# SF-268 CNS = system: SF-268 CNS
# OVCAR-4 ovarian = system: OVCAR-4 ovarian
# UO-31 renal = system: UO-31 renal
# OVCAR-5 ovarian = system: OVCAR-5 ovarian
# MCF7 breast = system: MCF7 breast
# BT-549 breast = system: BT-549 breast
# PC-3 prostate = system: PC-3 prostate
# SK-MEL-5 melanoma = system: SK-MEL-5 melanoma
# NCI-H522 lung = system: NCI-H522 lung
# HOP-92 NSCLC = system: HOP-92 NSCLC
# TK-10 renal = system: TK-10 renal
# NCI-H23 lung = system: NCI-H23 lung
# CAKI-1 renal = system: CAKI-1 renal
# MDA-MB-435 melanoma = system: MDA-MB-435 melanoma
# COLO 205 colon = system: COLO 205 colon
# ACHN renal = system: ACHN renal
# KM12 colon = system: KM12 colon
smiles,measurement,setting,value
CC[C@@H]1C(=O)N(C)c2cnc(Nc3ccc(C(=O)NC4CCN(C)CC4)cc3OC)nc2N1C1CCCC1,GI50,NCI-H460 NSCLC,< 10 nM
same,TGI,NCI-H460 NSCLC,< 10 nM
same,GI50,HCT-116 colon,< 10 nM
same,TGI,HCT-116 colon,135 nM
same,GI50,U251 glioblastoma,< 10 nM
same,TGI,U251 glioblastoma,85.6 nM
same,GI50,786-0 renal,< 10 nM
same,TGI,786-0 renal,149 nM
same,GI50,CCRF-CEM leukemia,< 10 nM
same,TGI,CCRF-CEM leukemia,< 10 nM
same,GI50,HL-60(TB) leukemia,< 10 nM
same,TGI,HL-60(TB) leukemia,< 10 nM
same,GI50,OVCAR-3 ovarian,< 10 nM
same,TGI,OVCAR-3 ovarian,< 10 nM
same,GI50,A498 renal,< 10 nM
same,TGI,A498 renal,814 nM
same,GI50,DU-145 prostate,< 10 nM
same,TGI,DU-145 prostate,< 10 nM
same,GI50,T-47D breast,< 10 nM
same,TGI,T-47D breast,166 nM
same,GI50,SK-MEL-2 melanoma,< 10 nM
same,TGI,SK-MEL-2 melanoma,< 10 nM
same,GI50,SK-OV-3 ovarian,< 10 nM
same,TGI,SK-OV-3 ovarian,107 nM
same,GI50,RXF 393 renal,< 10 nM
same,TGI,RXF 393 renal,< 10 nM
same,GI50,MDA-MB-468 breast,< 10 nM
same,TGI,MDA-MB-468 breast,< 10 nM
same,GI50,HT29 colon,< 10 nM
same,TGI,HT29 colon,1090 nM
same,GI50,MOLT-4 leukemia,< 10 nM
same,TGI,MOLT-4 leukemia,< 10 nM
same,GI50,K-562 leukemia,< 10 nM
same,TGI,K-562 leukemia,< 10 nM
same,GI50,HS 578T breast,< 10 nM
same,TGI,HS 578T breast,< 10 nM
same,GI50,NCI-H322M lung,< 10 nM
same,TGI,NCI-H322M lung,1400 nM
same,GI50,UACC-257 melanoma,< 10 nM
same,TGI,UACC-257 melanoma,1700 nM
same,GI50,IGROV1 ovarian,< 10 nM
same,TGI,IGROV1 ovarian,224 nM
same,GI50,SK-MEL-28 melanoma,< 10 nM
same,TGI,SK-MEL-28 melanoma,1920 nM
same,GI50,SR leukemia,< 10 nM
same,TGI,SR leukemia,< 10 nM
same,GI50,NCI-H226 lung,224 nM
same,TGI,NCI-H226 lung,1920 nM
same,GI50,NCI/ADR-RES ovarian,196 nM
same,TGI,NCI/ADR-RES ovarian,591 nM
same,GI50,MDA-MB-231 breast,< 10 nM
same,TGI,MDA-MB-231 breast,1350 nM
same,GI50,A549 NSCLC,< 10 nM
same,TGI,A549 NSCLC,121 nM
same,GI50,SNB-19 CNS,< 10 nM
same,TGI,SNB-19 CNS,269 nM
same,GI50,SW-620 colon,< 10 nM
same,TGI,SW-620 colon,< 10 nM
same,GI50,HCC-2998 colon,< 10 nM
same,TGI,HCC-2998 colon,< 10 nM
same,GI50,OVCAR-8 ovarian,< 10 nM
same,TGI,OVCAR-8 ovarian,< 10 nM
same,GI50,SN12C renal,< 10 nM
same,TGI,SN12C renal,880 nM
same,GI50,RPMI-8226 leukemia,< 10 nM
same,TGI,RPMI-8226 leukemia,< 10 nM
same,GI50,EKVX NSCLC,< 10 nM
same,TGI,EKVX NSCLC,62.1 nM
same,GI50,SF-268 CNS,< 10 nM
same,TGI,SF-268 CNS,414 nM
same,GI50,OVCAR-4 ovarian,10.3 nM
same,TGI,OVCAR-4 ovarian,129 nM
same,GI50,UO-31 renal,77.1 nM
same,TGI,UO-31 renal,1480 nM
same,GI50,OVCAR-5 ovarian,< 10 nM
same,TGI,OVCAR-5 ovarian,226 nM
same,GI50,MCF7 breast,< 10 nM
same,TGI,MCF7 breast,904 nM
same,GI50,BT-549 breast,< 10 nM
same,TGI,BT-549 breast,< 10 nM
same,GI50,PC-3 prostate,< 10 nM
same,TGI,PC-3 prostate,2460 nM
same,GI50,SK-MEL-5 melanoma,< 10 nM
same,TGI,SK-MEL-5 melanoma,< 10 nM
same,GI50,NCI-H522 lung,< 10 nM
same,TGI,NCI-H522 lung,< 10 nM
same,GI50,HOP-92 NSCLC,< 10 nM
same,TGI,HOP-92 NSCLC,1050 nM
same,GI50,TK-10 renal,< 10 nM
same,TGI,TK-10 renal,235 nM
same,GI50,NCI-H23 lung,< 10 nM
same,TGI,NCI-H23 lung,< 10 nM
same,GI50,CAKI-1 renal,< 10 nM
same,TGI,CAKI-1 renal,1270 nM
same,GI50,MDA-MB-435 melanoma,< 10 nM
same,TGI,MDA-MB-435 melanoma,< 10 nM
same,GI50,COLO 205 colon,< 10 nM
same,TGI,COLO 205 colon,< 10 nM
same,GI50,ACHN renal,66.1 nM
same,TGI,ACHN renal,1560 nM
same,GI50,KM12 colon,< 10 nM
same,TGI,KM12 colon,< 10 nM
